The values below come from EPA's ToxRefDB 2.

One data set has as its system rabbit. Particulars: Prenatal developmental toxicity study, himalayan, Injection, Intravenous, dose end: 18 GD.
The test system of data set [1] is dog. Particulars: Subchronic oral toxicity in nonrodent, beagle, Capsule, dose end: 3 month, group: systemic, systemic / clinical chemistry / alanine aminotransferase (alt/sgpt) / alanine aminotransferase (alt/sgpt).
Data set [2] has as its system dog. The following applies: Subchronic oral toxicity in nonrodent; beagle; Injection; Intravenous; dose end: 3 month; group: systemic; systemic / hematology / erythrocyte (rbc) count differential / erythrocyte (rbc) + systemic / hematology / hematocrit (hct) / hematocrit (….
Data set [3] has as its system rat. Particulars: Fertility (Segment I), wistar, Injection, Intravenous, dose end: 26 PND.
In data set [4] the test system is dog. The following applies: Subchronic oral toxicity in nonrodent, beagle, Capsule, dose end: 98 day, group: systemic.
The subject of data set [5] is rat. Particulars: Subchronic oral toxicity in rodents, sprague dawley, Feed, dose end: 13 week, group: systemic.
Setting [6] is: group: developmental, developmental / developmental malformation / general / crown-rump length + systemic / in life observation / body weight / fetal weight.
[7] abbreviates: group: maternal, systemic / in life observation / body weight / body weight gain + systemic / in life observation / clinical signs / [other] + systemic / in ….
The mark [8] stands for this setting: group: developmental, developmental / offspring survival late / viability index / viability index.
[9] abbreviates: group: maternal, reproductive / reproductive performance / pregnancy / pregnancy.
[10] abbreviates: group: offspring, systemic / in life observation / clinical signs / [other] + systemic / in life observation / clinical signs / abnormal gait + systemic / in ….
[11] abbreviates: group: offspring, systemic / in life observation / clinical signs / abnormal gait + systemic / in life observation / clinical signs / convulsions + systemic….
Where [12] appears, read: group: parental, systemic / in life observation / body weight / body weight gain + systemic / in life observation / clinical signs / [other] + systemic / in ….
[13] abbreviates: systemic / clinical chemistry / alanine aminotransferase (alt/sgpt) / alanine aminotransferase (alt/sgpt).
Where [14] appears, read: systemic / pathology microscopic / kidney / inclusion body intracytoplasmic.

SMILES strings stand for the structures.

As to `CC(C)c1ccc(C(=O)N=C(N)N)cc1S(C)(=O)=O.CS(=O)(=O)O` [Cariporide mesylate], the LEL in the data set with rabbit (setting [6]) is 40 mg/kg/day; in the data set on rabbit (group: maternal, systemic / in life observation / clinical signs / piloerection + systemic / in life observation / food consumption / food consumption), 16 mg/kg/day; in the data set with dog [1] it was 8 mg/kg/day; in the data set with dog [2] it was 1.25 mg/kg/day; in the data set on rat [3] (setting [8]) it was 125 mg/kg/day; with rat [3] (setting [9]), 125 mg/kg/day. For the same molecule, the results for the LEL with rat [3] (setting [11]) and in the data set on rat [3] (setting [12]) were 5 mg/kg/day and 125 mg/kg/day, respectively. Also, the lowest-observed-adverse-effect level (LOAEL) is above 40 mg/kg/day in the data set with rabbit (setting [6]); above 40 mg/kg/day in the data set on rabbit (setting [7]); above 20 mg/kg/day with dog [1]; above 20 mg/kg/day with dog [2]; above 125 mg/kg/day in the data set with rat [3] (setting [8]); above 125 mg/kg/day in the data set on rat [3] (setting [9]). For the same molecule, the lowest observed adverse effect level (LOAEL) in the data set on rat [3] (setting [10]) and with rat [3] (setting [12]) was above 125 mg/kg/day throughout. The NEL in the data set with rabbit (setting [6]) was 16 mg/kg/day; in the data set with rabbit (setting [7]) it was 6.3 mg/kg/day; in the data set with dog [1], 3.2 mg/kg/day; in the data set with dog [2], below 1.25 mg/kg/day; in the data set with rat [3] (setting [8]), 25 mg/kg/day; in the data set on rat [3] (setting [9]) it was 25 mg/kg/day. Further, the figures for the NEL in the data set with rat [3] (setting [11]) and in the data set on rat [3] (setting [12]) were below 5 mg/kg/day and 25 mg/kg/day, respectively. For the same molecule, the NOAEL was at least 40 mg/kg/day with rabbit (setting [6]); at least 40 mg/kg/day in the data set on rabbit (setting [7]); at least 20 mg/kg/day with dog [1]; at least 20 mg/kg/day in the data set on dog [2]; at least 125 mg/kg/day with rat [3] (setting [8]); at least 125 mg/kg/day with rat [3] (setting [9]). In addition, the no observed adverse effect level (NOAEL) in the data set on rat [3] (setting [10]) and with rat [3] (setting [12]) was at least 125 mg/kg/day each time.

`N#Cc1c(Cl)c(Cl)c(Cl)c(C#N)c1Cl` [Chlorothalonil]: the figures for the LEL with dog [4] (setting [13]) and with rat [5] (setting [14]) were 15 mg/kg/day and 1.5 mg/kg/day, respectively. Besides, the NEL is below 15 mg/kg/day in the data set on dog [4] (setting [13]) and below 1.5 mg/kg/day in the data set with rat [5] (setting [14]). Also, the figures for the lowest observed adverse effect level (LOAEL) in the data set on dog [4] (systemic / in life observation / body weight / body weight gain) and in the data set on rat [5] (setting [14]) were 150 mg/kg/day and 3 mg/kg/day, respectively. In addition, the NOAEL was 15 mg/kg/day in the data set with dog [4] (systemic / in life observation / body weight / body weight gain + systemic / clinical chemistry / alanine aminotransferase (alt/sgpt) / …) and 1.5 mg/kg/day with rat [5] (systemic / pathology microscopic / kidney / inclusion body intracytoplasmic + systemic / pathology microscopic / kidney / hyperplasia).
